Biological target: T1, Glutamate receptor ionotropic, kainate 4 (Homo sapiens, UniProt Q16099)
T1 sequence (Q16099 whole entry): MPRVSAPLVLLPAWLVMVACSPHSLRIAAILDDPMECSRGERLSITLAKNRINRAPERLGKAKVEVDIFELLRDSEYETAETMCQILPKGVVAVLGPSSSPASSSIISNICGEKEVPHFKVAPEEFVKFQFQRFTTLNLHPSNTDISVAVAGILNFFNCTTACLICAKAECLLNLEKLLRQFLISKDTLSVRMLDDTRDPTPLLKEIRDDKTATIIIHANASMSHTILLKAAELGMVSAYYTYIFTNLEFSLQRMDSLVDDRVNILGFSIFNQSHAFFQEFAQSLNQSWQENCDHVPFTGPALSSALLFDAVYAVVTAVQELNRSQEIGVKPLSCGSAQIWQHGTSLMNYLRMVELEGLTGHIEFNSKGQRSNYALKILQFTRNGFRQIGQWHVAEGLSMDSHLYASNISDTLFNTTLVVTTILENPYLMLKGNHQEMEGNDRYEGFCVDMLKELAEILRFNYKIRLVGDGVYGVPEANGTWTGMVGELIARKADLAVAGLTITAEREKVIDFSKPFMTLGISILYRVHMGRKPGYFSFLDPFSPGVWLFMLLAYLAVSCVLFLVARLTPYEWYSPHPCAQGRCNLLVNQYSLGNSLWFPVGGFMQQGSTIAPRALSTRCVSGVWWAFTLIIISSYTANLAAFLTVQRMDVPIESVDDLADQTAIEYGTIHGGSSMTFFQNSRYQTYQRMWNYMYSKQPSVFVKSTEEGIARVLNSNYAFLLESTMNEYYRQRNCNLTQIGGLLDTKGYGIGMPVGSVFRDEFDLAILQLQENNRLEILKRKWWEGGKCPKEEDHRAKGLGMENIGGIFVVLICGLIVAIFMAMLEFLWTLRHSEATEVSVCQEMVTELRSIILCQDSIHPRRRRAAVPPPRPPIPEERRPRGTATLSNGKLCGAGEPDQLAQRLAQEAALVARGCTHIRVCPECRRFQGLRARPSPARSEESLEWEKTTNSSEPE

For `C=C(C)[C@H]1CN[C@H](C(=O)O)[C@H]1CC(=O)O` [Digensaeure], the Ki was 2.29 nM.

In the case of `C/C(=C\C=C\[C@@H](C)C(=O)O)[C@H]1CN[C@H](C(=O)O)[C@H]1CC(=O)O`, the Ki is reported as 10.5 nM.

With `NC(CCC(=O)O)C(=O)O` (centres undefined) [glutamic acid dianion] the Ki was 18.3 nM.

`O=C1N=c2cc([N+](=O)[O-])c([N+](=O)[O-])cc2=NC1=O` [NSC_3140] was tested, and the Ki was 8490 nM.

Work on `N[C@@H](Cn1oc(=O)[nH]c1=O)C(=O)O` [2-amino-3-(3,5-dioxo[1,2,4]oxadiazolidin-2-yl)propionic acid] yielded a Ki of 6.43 nM.

Molecule `CN[C@H](CC(=O)O)C(=O)O` [NMDA] has a Ki greater than 10000 nM.

`Cc1onc(O)c1CC(N)C(=O)O` (stereo not drawn) [(RS)-2-amino-3-(3-hydroxy-5-methylisoxazol-4-yl)-propionicacid] gave a Ki of 1970 nM.

Work on `N#Cc1cc2nc(O)c(O)nc2cc1[N+](=O)[O-]` [7-Cyano-3-hydroxy-6-nitro-quinoxalin-2-ol anion] yielded a Ki greater than 10000 nM.

Work on `CC(C)[C@H]1CN[C@H](C(=O)O)[C@H]1CC(=O)O` [dihydrokainic acid] yielded a Ki of 3840 nM.
